This note sets out measurements from US11866689B2, “Splice-switching oligonucleotides and methods of use” (Duke University, priority 2018, dated 2024).

Common to all, as to type: cell-based
Data set [1] relates to ARv7. Briefly: ARv7 level after morpholino treatment of LN95 cells (RT-qPCR). As to conditions: 0-2.5 uM in complete media, 72 h, FIG. 6A. The method, then:
(§1) Briefly, LN95 cells were seeded in a 12 well plate in complete media (RPMI+10% charcoal stripped FBS) at 250,000 cells per well and incubated at 37 C and 5% CO2 in a humidified incubator. After 24 hours, 0, 0.5, 1, 1.5, 2, or 2.5 uM of ARv7 morph 1 morpholino or control morpholino was diluted in complete media and added to each well. After 72 additional hours of incubation, media was removed and cells were collected in RNA lysis buffer.
(§2) RNA was extracted using the Quick-RNA Miniprep kit (Zymo Research) following manufacturer's protocol. RNA was eluted in water and quantified using a Qubit fluorometer (Thermo Fisher). Reverse transcription (RT) reactions were performed using the ABI High Capacity cDNA Reverse Transcription Kit (Thermo Fisher) using 1 ug of RNA. RT reactions were incubated following manufacturer's protocol in a SimpliAmp thermocycler (Life Technologies). […] Fold Change from Scramble was calculated using the 2^-ΔΔCT method with TBP as the housekeeping gene and the control morpholino as the treatment control.
In general terms: Real-time PCR tracks product formation cycle by cycle.

The subject of data set [2] is full length AR. Description: Full length AR level after morpholino treatment of LN95 cells (RT-qPCR). As to conditions: 0-2.5 uM in complete media, 72 h, FIG. 6B. The method, then: as §1, §2
Data set [3] relates to ARv7. Briefly: ARv7 level after SSO transfection of prostate cancer cells (RT-qPCR, Western blot). As to conditions: for ARv7 (fold change from Scramble): vs Scramble/Scr control.
Experimental: A total of 6.25, 25, 100, or 400 nM of ARv7 SSO-6, 100 nM of ARv7 SSO-6ext, or 100 or 400 nM of Scrambled SSO was diluted in Opti-MEM and mixed with 2 uL Dharmafect 1 (LN95) or RNAiMax (VCaP) diluted in Opti-MEM for a total of 200 uL. The SSO-transfection reagent mixtures were incubated for 10 minutes at room temperature followed by plating in a 12 well plate. A total of 250,000 cells diluted in 800 uL Optimem were seeded atop the SSO-transfection reagent mixtures and incubated for 4 hours at 37° C. and 5% CO2 in a humidified incubator. Media was replaced with complete media after 4 hours (RPMI+10% charcoal stripped FBS for LN95 cells and DMEM+10% FBS for VCaP cells). After an additional 72 or 96 hours of incubation, media was removed and cells were collected in RNA lysis buffer or RIPA buffer containing protease inhibitor (Thermo Fisher).
RNA was extracted using the Quick-RNA Miniprep kit (Zymo Research) following manufacturer's protocol. RNA was eluted in water and quantified using a Qubit fluorometer (Thermo Fisher). Reverse transcription (RT) reactions were performed using the ABI High Capacity cDNA Reverse Transcription Kit (Thermo Fisher) using 1 ug of RNA. RT reactions were incubated following manufacturer's protocol in a SimpliAmp thermocycler (Life Technologies). […] RT-qPCR was run on a ViiA7 Real-Time PCR System (Applied Biosystems) using the following conditions: 95° C. for 2 minutes, 40×(95 C for 1 second, 60° C. for 20 seconds). Fold Change from Scramble was calculated using the 2^-ΔΔCT method with TBP as the housekeeping gene and the Scrambled SSO as the treatment control.
RNA was extracted using the Quick-RNA Miniprep kit (Zymo Research) following manufacturer's protocol. RNA was eluted in water and quantified using a Qubit fluorometer (Thermo Fisher). […] Fold Change from Scramble was calculated using the 2^-ΔΔCT method with TBP as the housekeeping gene and the Scrambled SSO as the treatment control.
A further data set has as its system LN95 cells. Description: Prostate cancer cell proliferation (Incucyte % confluence) after SSO transfection. Particulars: 100 nM, transfected twice, 7 days, −/+ enzalutamide, vs Scr, FIG. 4. The method, then: As depicted in FIG. 4, ARv7 SSO-6 inhibits prostate cancer cell (LN95) proliferation. Briefly, a total of 100 nM of ARv7 SSO-6 or 100 nM of Scrambled SSO was diluted in Opti-MEM and mixed with 2 uL Dharmafect 1 for a total of 200 uL. The SSO-transfection reagent mixtures were incubated for 10 minutes at room temperature followed by plating in a 12 well plate. A total of 250,000 LN95 cells diluted in 800 uL Optimem were seeded atop the SSO-transfection reagent mixtures and incubated for 4 hours at 37 C and 5% CO2 in a humidified incubator. Media was replaced with complete media after 4 hours (RPMI+10% charcoal stripped FBS). 72 hours later cells were lifted using 0.25% trypsin and the transfection procedure was repeated. 4 hours after transfection media was replaced with complete media and cells were gently resuspended by pipetting up and down. Cells were then seeded in to a 96 well plate at 10,000 cells/well and the plate was placed in to the Incucyte S3 live cell imager (Essen Bioscience) and incubated at 37° C. and 5% CO2 for 7 days. % confluence was calculated once per day and fold change from 0 hr was calculated for each time point.

In a further data set the test system is ARv9. Briefly: ARv9 level after SSO transfection of prostate cancer cells. As to conditions: prostate cancer cell lines LN95, VCaP; 6.25-400 nM transfected; vs Scramble/Scr control; FIG. 2. The procedure:
(§3) For FIGS. 2 and 3, the experimental methods is described briefly. A total of 6.25, 25, 100, or 400 nM of ARv7 SSO-6, 100 nM of ARv7 SSO-[…], or 100 or 400 nM of Scrambled SSO was diluted in Opti-MEM and mixed with 2 uL Dharmafect 1 (LN95) or RNAiMax (VCaP) diluted in Opti-MEM for a total of 200 uL. The SSO-transfection reagent mixtures were incubated for 10 minutes at room temperature followed by plating in a 12 well plate. A total of 250,000 cells diluted in 800 uL Optimem were seeded atop the SSO-transfection reagent mixtures and incubated for 4 hours at 37° C. and 5% CO2 in a humidified incubator. Media was replaced with complete media after 4 hours (RPMI+10% charcoal stripped FBS for LN95 cells and DMEM+10% FBS for VCaP cells). After an additional 72 or 96 hours of incubation, media was removed and cells were collected in RNA lysis buffer or RIPA buffer containing protease inhibitor (Thermo Fisher). […] RNA was eluted in water and quantified using a Qubit fluorometer (Thermo Fisher). […] Fold Change from Scramble was calculated using the 2^-ΔΔCT method with TBP as the housekeeping gene and the Scrambled SSO as the treatment control. Protein samples were quantified using a Bradford assay (Pierce Scientific) and 25 ug of each cell extract was mixed with SDS sample buffer and submitted to SDS-PAGE. […]

Data set [4] has as its system full length AR. Briefly: Full length AR level after SSO transfection of prostate cancer cells (RT-qPCR, Western blot). As to conditions: prostate cancer cell lines LN95, VCaP; 6.25-400 nM transfected; vs Scramble/Scr control; FIG. 2. The method, then:
as §3

“TTGCCAACCCGGAATTTTTCTAGTATGA (all phosphorodiamidate morpholino (PMO)) [ARv7 morph 1]”: the “ARv7 (fold change from control morpholino)” value with ARv7 [1] was “dose-dependent decrease”. Moreover, the “full length AR” value in the data set on full length AR [2] is recorded as “maintenance”.

For the substance “mC*mA*mG*mC*mC*mT*mT*mT*mC*mT*mT*mC*mA*mG*mG*mG*mT*mC (CAGCCTTTCTTCAGGGTC; all 2'-O-methyl, all phosphorothioate, T or U not given here) [Arv7 Cons1]”, the “ARv7 RNA (fold change from Scramble)” value in the data set with ARv7 [3] (LN95, 12.5, 25, 50 nM transfected, 72 h, vs Scrambled SSO, FIG. 5) is given as “decreases ARv7 RNA in a dose-dependent manner”.

Turning to “mG*mC*mC*mA*mA*mC*mC*mC*mG*mG*mA*mA*mU*mU*mU*mU*mU*mC [ARv7 SSO-6]”, the “prostate cancer cell proliferation (% confluence, fold change from 0 hr)” value with LN95 cells was “inhibits”. Moreover, the ARv9 entry in the data set on ARv9 is given as “maintenance”. Moreover, in the data set with full length AR [4], the “full length AR” value is given as “maintenance”. The “ARv7 (fold change from Scramble)” value in the data set with ARv7 [3] (prostate cancer cell lines LN95, VCaP, 6.25, 25, 100, 400 nM transfected, 72 or 96 h, FIG. 2) is listed as “dose dependent decrease”.

Consider “mG*mC*mC*mA*mA*mC*mC*mC*mG*mG*mA*mA*mU*mU*mU*mU*mU*mC* mU*mA*mG*mU [ARv7 SSO-6ext]”, for which, in the data set on ARv7 [3] (LN95, 100 nM transfected, FIG. 3), the “ARv7 (fold change from Scramble)” value is recorded as “decrease”.
